Source: patent US5767268A, “Sulfuric acid esters of amino sugars” (Hoffmann-La Roche Inc., priority 1995, dated 1998)
Structures can show the parent of a compound that is named as a salt. Where two headings read alike, the source gives them in different places.

Columns and labels:
rat smooth muscle cells = assay: Antiproliferative activity (ri, relative to heparin) in rat smooth muscle cells; format: cell-based; design: key: growth inhibition relative to heparin at 100 μg/ml, same experiment; conditions: 100 μg/ml, 48 h, relative to heparin at 100 μg/ml in the same experiment
Method: Antiproliferative Activity
The antiproliferative activity of a substance is expressed as the ri value which is a comparative value to the corresponding activity of heparin and which was determined in cell cultures as follows: rat smooth muscle cells were applied to cell culture plates in a density of 8×10^3 cells/well (medium: DMEM with 10% FCS. Cultivation at 37° C. and 5% CO2). After 4 hours, the number of adhered cells was determined and the substances to be tested (100 μg/ml, dissolved in H2 O) were added. […] Subsequently, the cells were incubated for 48 h. and thereafter the cell count was determined once more.
The inhibition i of the cell growth, that is, the reduction in the growth rate of the cells in percent compared to the control, was calculated from these values. [formula] the growth rate μbeing calculated as [formula] in which Z is the number of cells and d is the time in days.
Finally, ri --the relative inhibitory activity--which expresses the activity of a substance (at 100 μg/ml) in comparison to the activity of heparin in the same concentration in the same experiment, was calculated: [formula] Blood Coagulation Inhibition

thrombin = biological target: T1, thrombin (Homo sapiens, UniProt P00734); format: biochemical
T1 construct: purchased Roche Basle (Thrombin Reagent)
Method: (§1) Inhibition of thrombin or Factor Xa in the Chromogen Substrate Test (Teien et al., Thrombosis Research 10, 399-410 (1977)): The determination was effected in a Cobas-Bio centrifugal automatic spectrophotometer. The buffer solution used consisted of 50 mM Tris buffer, 180 mM NaCl, 7.5 mM EDTA Na2, 1% PEG 6000 and 0.02% Tween 80, pH 8.4. The test solution consisted of 50 μl of buffer, 30 μl of antithombin III (1U/ml, Kabi Diagnostica) and 20 μl of plasma which contained various concentrations of test compounds. 30 μl of sample solution and 20 μl of water with 180 μl of thrombin (1U/ml, Thrombin Reagent Roche Basle) were added to the test cuvette in the automatic analyzer. After incubation at 37° C. for 240 seconds, 60 μl of S-2238 (H-D-Phe-Pip-Arg-NH.pNA, Kabi Diagnostica, Mondal, Sweden, 0.75 mM in water) and 20 μl of water were added. The liberation of pNA (p-nitro-aniline) was followed during 60 seconds at 405 nm in 10 second intervals in comparison to water as the blank.

Factor Xa = biological target: T2, Factor Xa (Bos taurus, UniProt P00743); assay: Blood coagulation inhibition: inhibition of Factor Xa in the Chromogen Substrate Test; format: biochemical
T2 sequence (P00743 41-180 limits assumed): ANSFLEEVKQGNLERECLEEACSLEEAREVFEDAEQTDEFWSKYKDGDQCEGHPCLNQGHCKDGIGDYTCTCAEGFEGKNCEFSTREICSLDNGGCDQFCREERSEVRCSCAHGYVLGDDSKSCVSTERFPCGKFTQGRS
Method: as §1
The inhibition of Factor Xa was measured in the same manner using a solution of Factor Xa (2.8 nkat/ml and 2 mM S-2222 (Bz-CO-Ile-Glu-Arg-NH.pNA, Kabi Diagnostica) in water in place of thrombin and, respectively, S-2238.

[1] = system: neointima in rat carotids; assay: In vivo assay of the antiproliferative activity in damaged rat carotids (neointima); design: species or system rat (male Wistar Kyoto); conditions: 1 mg/kg/h i.v., p<0.001 t-test
Method: In vivo assay for the determination of the antiproliferative activity of the compounds in accordance with the invention in damaged rat carotids
After narcosis, the left carotids of male Wistar Kyoto rats (300-400 g) were damaged with a 2 F embolectomy catheter by drawing the catheter in the pumped-up state three times through the vessel. After wound healing, the animals were kept in pairs with standard feed and water ad libidum.
The compounds were administered in concentrations of 0.3-1 mg/kg/h i.v. For this purpose, during the narcosis an osmotic minipump was implanted into the animals under the dorsal skin and was attached to the jugular vein. Thus, the compounds could be administered constantly during the entire test period of 14 days.
After 14 days proliferative tissue (neointima) had formed, the size of which could be determined morphometrically on histological cross-sections.For this purpose, the rats were sacrificed and perfusion-fixed with glutaraldehyde.

[2] = with antithrombin III and plasma, S-2238 substrate, 37° C., pH 8.4; read-out: Anticoagulative Activity IC50 Thrombin
[3] = with antithrombin III and plasma, S-2222 substrate; read-out: Anticoagulative Activity IC50 Factor Xa
[4] = with antithrombin III and plasma, S-2238 substrate, 37° C., pH 8.4
[5] = with antithrombin III and plasma, S-2222 substrate

Compound	Antiproliferative Activity ri (relative inhibitory activity versus heparin) (rat smooth muscle cells)	IC50 (thrombin; [2]) [µM]	IC50 (Factor Xa; [3]) [µM]	cross-sectional area of the neointima in rat carotids 14 days after balloonisation [1]	IC50 (thrombin; read-out: Anticoagulative Activity IC50 Thrombin; with antithrombin III and plasma, S-2238 substrate, 37° C., pH 8.4) [µM]	IC50 (Factor Xa; read-out: Anticoagulative Activity IC50 Factor Xa; with antithrombin III and plasma, S-2222 substrate) [µM]	Anticoagulative Activity IC50 Thrombin (thrombin; [4]) [µg/mL]	Anticoagulative Activity IC50 Factor Xa (Factor Xa; [5]) [µg/mL]
O=C(N[C@H]1[C@@H](OCc2ccccc2)O[C@H](CNC(=O)[C@H](OS(=O)(=O)O)[C@@H](OS(=O)(=O)O)[C@H](OS(=O)(=O)O)[C@@H](COS(=O)(=O)O)OS(=O)(=O)O)[C@@H](OS(=O)(=O)O)[C@@H]1OS(=O)(=O)O)c1ccc(-c2ccc(C(=O)N[C@H]3[C@@H](OCc4ccccc4)O[C@H](CNC(=O)[C@H](OS(=O)(=O)O)[C@@H](OS(=O)(=O)O)[C@H](OS(=O)(=O)O)[C@@H](COS(=O)(=O)O)OS(=O)(=O)O)[C@@H](OS(=O)(=O)O)[C@@H]3OS(=O)(=O)O)cc2)cc1 [Example 14, Biphenyl-4,4'-dicarboxylic acid bis-[[benzyl 2,6-didesoxy-3,4-di-O-sulfo-6-(2,3,4,5,6-penta-O-sulfo-D-gluconoylamino)-a-D-glucopyranosid-2-yl]-amide] tetradecasodium salt]	1.2	> 450	> 450	significantly reduced	–	–	–	–
O=C(N[C@H]1[C@@H](OCc2ccccc2)O[C@H](CNC(=O)[C@H](OS(=O)(=O)O)[C@@H](OS(=O)(=O)O)[C@H](OS(=O)(=O)O)[C@@H](COS(=O)(=O)O)OS(=O)(=O)O)[C@@H](OS(=O)(=O)O)[C@@H]1OS(=O)(=O)O)c1cccc(C(=O)N[C@H]2[C@@H](OCc3ccccc3)O[C@H](CNC(=O)[C@H](OS(=O)(=O)O)[C@@H](OS(=O)(=O)O)[C@H](OS(=O)(=O)O)[C@@H](COS(=O)(=O)O)OS(=O)(=O)O)[C@@H](OS(=O)(=O)O)[C@@H]2OS(=O)(=O)O)c1 [Example 24, Isophthalic acid bis-[[benzyl 2,6-didesoxy-6-(2,3,4,5,6-penta-O-sulfo-D-gluconoylamino)-3,4-di-O-sulfo-a-D-gluco-pyranosid-2-yl]-amide] tetradecasodium salt]	–	–	–	significantly reduced	–	–	–	–
CC(=O)Nc1cc(C(=O)N[C@H]2[C@@H](OCc3ccccc3)O[C@H](CNC(=O)c3cccc(C(=O)NC[C@H]4O[C@H](OCc5ccccc5)[C@H](NC(=O)c5ccc(N(C)C[C@H](OS(=O)(=O)O)[C@@H](OS(=O)(=O)O)[C@H](OS(=O)(=O)O)[C@@H](COS(=O)(=O)O)OS(=O)(=O)O)c(NC(C)=O)c5)[C@@H](OS(=O)(=O)O)[C@@H]4OS(=O)(=O)O)c3)[C@@H](OS(=O)(=O)O)[C@@H]2OS(=O)(=O)O)ccc1N(C)C[C@H](OS(=O)(=O)O)[C@@H](OS(=O)(=O)O)[C@H](OS(=O)(=O)O)[C@@H](COS(=O)(=O)O)OS(=O)(=O)O [Example 37, Isophthalic acid bis-[[benzyl 2-[3-acetylamino-4-[methyl-(2,3,4,5,6-penta-O-sulfo-D-glucit-1-yl)-amino]-benzoylamino]-2,6-didesoxy-3,4-di-O-sulfo-a-D-glucopyranosid-6-yl]-amide] tetradecasodium salt]	1.9	> 401	> 401	–	–	–	–	–
CC(=O)Nc1cc(C(=O)N[C@H]2[C@@H](OCc3ccccc3)O[C@H](CNC(=O)c3cccc(C(=O)NC[C@H]4O[C@H](OCc5ccccc5)[C@H](NC(=O)c5ccc(N(CCOS(=O)(=O)O)C[C@H](OS(=O)(=O)O)[C@@H](OS(=O)(=O)O)[C@H](OS(=O)(=O)O)[C@@H](COS(=O)(=O)O)OS(=O)(=O)O)c(NC(C)=O)c5)[C@@H](OS(=O)(=O)O)[C@@H]4OS(=O)(=O)O)c3)[C@@H](OS(=O)(=O)O)[C@@H]2OS(=O)(=O)O)ccc1N(CCOS(=O)(=O)O)C[C@H](OS(=O)(=O)O)[C@@H](OS(=O)(=O)O)[C@H](OS(=O)(=O)O)[C@@H](COS(=O)(=O)O)OS(=O)(=O)O [Example 38, Isophthalic acid bis-[[benzyl 2-[3-acetylamino-4-[(2,3,4,5,6-penta-O-sulfo-D-glucit-1-yl)-(2-sulfonyloxy-ethyl)-amino]-benzoylamino]-2,6-didesoxy-3,4-di-O-sulfo-a-D-glucopyranosid-6-yl]-amide] hexadecasodium salt]	1.8	–	–	–	> 368	> 368	–	–
Biphenyl-4,4'-dicarboxylic acid bis-[[(Z)-benzyl 2,6-didesoxy-3,4-di-O-sulfo-6-(3-desoxy-2,4,5,6-tetra-0-sulfo-D-erythro-hex-2-enonoylamino)-a-D-glucopyranosid-2-yl]-amide] dodecasodium salt [Example 15]	1.8	–	–	–	–	–	> 1000	> 1000
Heparin [reference compound]	1.0	–	–	–	–	–	1.9	2.7
